Here are results for 4 compounds from patent US20240199555A1, “APPLICATIONS OF BIASED LIGANDS OF THE SEROTONIN 5-HT7 RECEPTOR FOR THE TREATMENT OF PAIN, MULTIPLE SCLEROSIS AND THE CONTROL OF THERMOREGULATION” (Centre National de la Recherche Scientifique, priority 2021, published 2024).

Experiment [1] deals with h5-HT7R (Homo sapiens (Human), UniProt P34969). The experiment can be described thus: ERK1/2 and c-SRC phosphorylation by western blot in HEK-293 cells stably expressing h5-HT7R. Type of experiment: cell-based. The note with it: 10 μM of ligand or increasing concentrations, western blot. The method, then:
(A, B, C, D, E, F) Time course of activation of ERK1/2 after stimulation of HEK-293 cells stably expressing h5-HT7R with various 5-HT7R ligands used at 10 μM. The cells were stimulated for the indicated periods and assayed for detection of phospho ERK1/2 by western blot analysis. […] Representative blots of three independent experiments are illustrated. The histogram on the right of each panel represents the results of densitometric analyses of three independent experiments. Data are means±SEM. * p<0.05; ** p<0.01; *** p<0.001 versus non stimulated cells (NS).
HEK-293 cells stably expressing h5-HT7R were stimulated with increasing concentrations of 5-CT or Serodolin for 7 minutes. Cells were lysed, and western blot analysis was performed. Representative Western blots from three independent experiments were shown in A-C. Quantification was performed by densitometric analyses from three independent experiments. Analyzed data were plotted versus log concentration for each compounds (A; B) or as bar graph (C) on the right panel.
Time course of activation of ERK1/2 after stimulation of HEK-293 cells stably expressing h5-HT7R with JLB060, a 5-HT7R ligand used at 10 μM. The cells were stimulated for the indicated periods and assayed for detection of phospho ERK1/2 by western blot analysis.
(§1) Treated cells were washed twice with cold PBS and lysed on ice for 30 min in lysis buffer containing 50 mM Tris pH 7.5, 150 mM NaCl, 10 mM EDTA, 1% Triton X-100 and the protease inhibitor cocktail. Cell lysates were centrifuged at 10,000×g for 10 min. Supernatant was then solubilized in Laemmli buffer with 0.1% β-mercaptoethanol. Samples were resolved by electrophoresis on 10% SDS-PAGE, and transferred electrophoretically to polyvinylidene fluoride (PVDF) membranes (GE Healthcare Life Sciences). […] membranes were washed in Tris-buffered saline (TBS; pH 7.4) containing 0.1% Tween-20 (TBS-T; 0.1%) and blocked with 5% (w/v) dry milk TBS-T 0.1% for 30 min. […] Blots were probed with anti-arrestin, anti-Phospho-ERK or anti-ERK antibody (1:2000), anti Phospho-SRC, anti SRC antibody, anti-HA or anti-GFP or anti-actin antibodies. Horseradish-peroxidase-conjugated goat anti-rabbit, anti-mouse or anti-rat antibodies (1:33,000) were used as secondary antibodies. Immunoreactive bands were detected using the Dura detection kit. Protein quantification on blots was performed using Quantity One software (Biorad).
as §1, with “12%” for “10%”, “with” for “with anti-arrestin,”, “anti-Phospho-ERK (1:2000)” for “anti-Phospho-ERK”, “anti-GAPDH” for “anti-ERK”, “(1:5000). […]” for “(1:2000), anti Phospho-SRC, anti SRC antibody, anti-HA or anti-GFP or anti-actin antibodies. Horseradish-peroxidase-conjugated goat anti-rabbit, anti-mouse or anti-rat antibodies (1:33,000) were used as secondary antibodies.”
ERK phosphorylation was monitored by western blotting after treatment of cells with 10 μM of ligands at different times ranging from 2 to 60 minutes.

Experiment [2] has as its target human 5-HT2Cedited receptor (Homo sapiens, UniProt P28335). The experiment is described as follows: Radioligand binding competition, 5-HT2Cedited. The following applies: selectivity panel. The protocol:
(§2) FIG. 14: Testing of 8 molecules for radioligand binding competition activity on recombinant human 5-HT1A, 5-HT2A, 5-HT2Cedited, 5-HT6, 5-HT7 and D2(long) receptors using filtration binding assays.
(§3) Radioligand Binding experiments were conducted with Epics Therapeutics membrane preparations. Receptor accession numbers, cellular background and reference compounds are shown in this table.
(§4) The new compounds have been tested by radioligand binding competition activity at the human 5-HT1A (FAST-0500B), 5-HT2A (FAST-0505B), 5-HT2Cedited (FAST-0507B), 5-HT6 (FAST-0509B), 5-HT7a (FAST-05111B) and D2(long) (FAST-0101B) receptors at seven (7) concentrations, in duplicate. […] Reference values thus obtained for the test were compared to historical values obtained from the same receptor and used to validate the experimental session. For replicate determinations, the maximum variability tolerated in the test was of +/−20% around the average of the replicates.
(§5) Dose-response data from test compounds were analyzed with XLfit (IDBS) software using nonlinear regression applied to a sigmoidal dose-response model and the following equation: • XL Fit fit Model 203: 4 Parameter Logistic Model • A: Bottom • B: TOP • C: LogEC50 • D: Hill

The target of experiment [3] is human 5-HT1A receptor (Homo sapiens (Human), UniProt P08908). The experiment can be described thus: Radioligand binding competition, 5-HT1A. The following applies: selectivity panel. The method, then:
as §2, §3, §4, §5

Experiment [4] addresses human 5-HT2A receptor (Homo sapiens (Human), UniProt P28223). The experiment can be described thus: Radioligand binding competition, 5-HT2A. The note with it: selectivity panel. The method, then: as §2, §3, §4, §5
The target of experiment [5] is human 5-HT7a receptor (Homo sapiens (Human), UniProt P34969). The experiment can be described thus: Radioligand binding competition, filtration binding assay, 5-HT7a. The note with it: affinity on 5-HT7 receptor, table of new compounds. The protocol: as §2, §3
Reference values thus obtained for the test were compared to historical values obtained from the same receptor and used to validate the experimental session. For replicate determinations, the maximum variability tolerated in the test was of +/−20% around the average of the replicates.
as §5

Experiment [6] deals with C57BL/6 mice. The experiment is described as follows: Spared Nerve Injury (SNI) neuropathic pain model, Von Frey. The following applies: s.c.
Procedure: Pregabalin, vehicle or compounds solutions are subcutaneously administrated for 8 consecutive days. • (A) Mechanical response threshold after the first administration (D+10). […] Positive control animals were treated with Pregabalin (5 mg/kg, sc). Statistical differences are indicated compared to vehicle group (Two-way RM ANOVA followed by Bonferroni post-hoc test: ***p<0.001, ** p<0.01, * p<0.05). […] Positive control animals were treated with Pregabalin (5 mg/kg, sc). Statistical differences are indicated compared to vehicle group (Two-way RM ANOVA followed by Bonferroni post-hoc test: ***p<0.001, ** p<0.01, * p<0.05). […] (Two-way RM ANOVA followed by Bonferroni post-hoc test: ***p<0.001, ** p<0.01, * p<0.05)
MOA51 and Serodolin (AIC01) compounds were diluted in NDT solution (NaCl 0.9%—DMSO 20%—Tween80 5%). […] AIC01 was resuspended at 0.5 mg/mL and administrated at a ratio of 100 μl per 10 g (dose of 5 mg/kg).
Experiment starts with 8 weeks old male C57B16J mice (from Charles River). Study was performed on 40 mice (2 mice were excluded during the study due to health guidelines) divided in 4 randomized groups. • Group A: s.c. injection at 5 mg/kg of pregabalin. • Group B: s.c. injection at 0.5 mg/kg of MOA51. • Group C: s.c. injection at 5 mg/kg of Serodolin (AIC01). • Group D: s.c. injection of NDT solution (referred as Vehicle hereafter).
Compounds solutions, pregabalin and vehicle were subcutaneously administrated (100 μl/10 g) for 9 consecutive days, starting 10 days after surgery. Ligature and transection of the common peroneal and tibial distal branches of the sciatic nerve was made leaving the sural branch intact. 7 days post-surgery, a decrease of threshold response to Von Frey filaments of ipsilateral hind-paw was observed corresponding to neuropathic pain apparition (mechanical allodynia). Mechanical threshold response of mice were measured with calibrated Von Frey filaments using the up/down method. Experimenter was blind to mice treatment. Measures are performed as follow: one baseline measure before surgery, one measure at D+10, D+12, D+14, D+16 and D+18 before drug's administration, and 1 h, 2 h post-drug administration. A supplementary measure 4 h post-drug administration was performed at D+10 and D+18.
Two-way RM ANOVA (followed by Bonferroni post-hoc test) was used to analysed time course response at D+10 and D+18. Area under the curve was determined with the 1 h and 2 h post-drug administration measures to investigated tolerance of repeated administration of compounds
For experiment [7], the system named is mice. The experiment is described as follows: Acetic acid-induced writhing test. The following applies: 3 mg/kg, s.c., positive control. Type of experiment: in vivo. The protocol:
(§6) FIG. 9: Analgesic effect of Serodolin in the acetic acid-induced writhing test. In this test, nociception was induced by an intraperitoneally injection (ip) of 0.1 ml/10 g acid acetic solution (10 ml/kg) in peripheral origin. Serodolin at increasing dosage was administrated by oral (po), intravenous (iv) or subcutaneous (sc) route before acid acetic injection (upper panel). Positive control animals were pretreated morphine (3 mg/kg, sc) 10 minutes before acetic acid. Five minutes after i.p. injection of acetic acid the number of writhing was recorded for 10 minutes. Data mean±SEM of values obtained from a representative experiment (n=10 animals/group). ****p<0.0001 ***p<0.001 **p<0.01 *p<0.05 as compared with the control group (Vh).
as §6, with “16:” for “9:”, “MOA51” for “Serodolin”, “i.p.injection” for “i.p. injection”, “animals/group).” for “animals/group). ****p<0.0001 ***p<0.001”, “**p<0.01” for “**p<0.01 *p<0.05”
Writhing tests: Mice (25-35 g). Groups of mice (n=10) received by oral, subcutaneous or intravenous route Serodolin at different doses (0.1-10 mg/kg) one hour before intraperitoneally injection of 1% acetic acid in a volume of 10 ml/kg. Control group received vehicle (10 ml/kg, solution of 20% DMSO and 5% tween 80). The test was carried out 5 minutes later after acid acetic injection. The characteristic writhing responses have been observed individually and counted for 10 minutes.
Analgesic activity was first evaluated using the acetic acid abdominal constriction test (writhing test), a chemical model of visceral pain. We evaluated the dose-response effect of Serodolin following single oral, intravenous and subcutaneous administration of the compound one hour before injection of acetic acid.
Analgesic activity was evaluated using the acetic acid abdominal constriction test (writhing test), a chemical model of visceral pain. We evaluated the dose-response effect of MOA51 following single oral, intravenous and subcutaneous administration of the compound one hour before injection of acetic acid. MOA51 administered by the oral route induced statistically significant dose-dependent decreases in the number of writhings at and above the dose of 1 mg/kg. By the intravenous route, MOA51 induced dose-dependent decreases in the number of writhings at and above the dose of 0.1 mg/kg.
(Writhing tests count abdominal constrictions after an irritant is injected.)

In experiment [8] the test system is Sprague-Dawley male rats. The experiment is described as follows: Formalin induced inflammatory pain model. The format is in vivo. The following applies: single s.c., Serodolin 10 mg/kg, MOA51 1 mg/kg, morphine. The method, then:
FIG. 18: Effect of a single administration of Serodolin (AIC01) or MOA51 in the formalin test in rats. Effect of a single subcutaneous administration of Serodolin (AIC01) or MOA51 in the formalin test in rats. In this test, Sprague-Dawley male rats received unilateral injection of a 2.5% formalin solution (50 μl) into the plantar aspect of the hindpaw on testing day (i.e. D0). Control group received Vehicle (20% DMSO/5% Tween 80/NaCl). Serodolin was subcutaneously (sc) administrated at 10 mg/kg and MOA51 at 1 mg/kg. Positive control animals were treated with morphine (3 mg/kg, sc). Paw licking time was measured. Results are expressed as mean±s.e.m. Percentage are expressed as decreased as compared to the vehicle-treated group and represented as figure (B). ***: p<0.001 as compared to the vehicle-treated group, Bonferroni's test after significant Two-way Repeated Measures ANOVA. NS: Non-significant.
Sprague-Dawley male rats (n=10 rats per group) received unilateral injection of a 2.5% formalin solution (50 μl) into the plantar aspect of the hindpaw on testing day (i.e. D0). Experience was separated into 4 groups of animals. Formalin animals+vehicle-treated group; […]—Formalin animals+Sponsor's Serodolin (10 mg/kg), s.c.—Formalin animals+Sponsor's MOA51 (1 mg/kg), s.c.—Formalin animals+internal validator-treated group (Morphine at 4 mg/Kg, s.c.). Single subcutaneous administration of the Vehicle and Sponsor's Compound 30 min (or other timing depending on Sponsor's design) before formalin injection on testing day (i.e. D0)/Subcutaneous administration of Morphine 30 min before formalin injection on testing day (i.e. D0). Hindpaw licking time recorded in consecutive 5 minutes periods from 0 to 5 minutes (early phase) and 17 to 27 minutes (late phase) after formalin injection.
We evaluated the effect of Serodolin as well as MOA51 in rats in the formalin test, an acute and tonic pain model based on the use of a chemical stimulus. Subcutaneous injection of formalin into the right hindpaw produces a biphasic painful response of increasing and decreasing intensity for about 30 minutes after the injection. […] Although not significant, Serodolin, MOA51 and morphine have an inhibitory effect (−40%, −35% and −57% respectively) during the early phase.

human 5-HT1A receptor, sequence (P08908 whole entry): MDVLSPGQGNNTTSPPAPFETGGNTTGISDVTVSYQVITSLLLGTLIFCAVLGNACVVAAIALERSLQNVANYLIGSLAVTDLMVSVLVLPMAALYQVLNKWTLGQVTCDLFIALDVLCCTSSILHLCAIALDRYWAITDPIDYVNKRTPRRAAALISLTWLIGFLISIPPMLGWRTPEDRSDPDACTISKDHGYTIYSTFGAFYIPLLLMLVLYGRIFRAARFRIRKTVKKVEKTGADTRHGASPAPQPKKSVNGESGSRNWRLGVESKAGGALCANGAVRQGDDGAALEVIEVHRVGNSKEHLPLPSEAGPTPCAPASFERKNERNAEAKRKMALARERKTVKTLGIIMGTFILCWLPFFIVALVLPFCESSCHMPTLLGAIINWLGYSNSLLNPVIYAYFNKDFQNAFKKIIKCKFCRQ
h5-HT7R, sequence (P34969 1-432): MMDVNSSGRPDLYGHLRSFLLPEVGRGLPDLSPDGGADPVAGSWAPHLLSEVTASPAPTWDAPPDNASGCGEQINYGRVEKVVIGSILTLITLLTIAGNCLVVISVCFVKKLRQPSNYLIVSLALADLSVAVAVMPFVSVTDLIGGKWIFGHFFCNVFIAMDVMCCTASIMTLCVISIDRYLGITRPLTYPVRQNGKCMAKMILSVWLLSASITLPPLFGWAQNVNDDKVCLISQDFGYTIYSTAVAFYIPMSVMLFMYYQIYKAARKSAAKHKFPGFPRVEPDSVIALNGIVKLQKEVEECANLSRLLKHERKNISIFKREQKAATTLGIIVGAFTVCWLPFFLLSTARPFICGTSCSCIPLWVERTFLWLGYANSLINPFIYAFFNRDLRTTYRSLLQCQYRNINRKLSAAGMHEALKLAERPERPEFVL
human 5-HT2A receptor, sequence (P28223 whole entry): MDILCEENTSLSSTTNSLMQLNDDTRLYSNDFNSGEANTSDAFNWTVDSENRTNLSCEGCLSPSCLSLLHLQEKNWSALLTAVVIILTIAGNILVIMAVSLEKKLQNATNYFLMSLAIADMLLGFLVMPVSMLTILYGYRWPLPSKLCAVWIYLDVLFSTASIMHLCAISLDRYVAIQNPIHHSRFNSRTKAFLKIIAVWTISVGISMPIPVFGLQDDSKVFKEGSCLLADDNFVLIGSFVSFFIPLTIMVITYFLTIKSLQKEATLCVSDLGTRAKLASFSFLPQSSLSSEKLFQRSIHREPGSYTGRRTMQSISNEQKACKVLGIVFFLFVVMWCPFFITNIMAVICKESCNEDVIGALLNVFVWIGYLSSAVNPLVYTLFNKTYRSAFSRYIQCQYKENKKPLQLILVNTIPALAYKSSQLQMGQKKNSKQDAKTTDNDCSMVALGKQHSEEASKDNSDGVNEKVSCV
human 5-HT7a receptor, sequence (P34969 other isoform, or with tags, fused parts or gaps): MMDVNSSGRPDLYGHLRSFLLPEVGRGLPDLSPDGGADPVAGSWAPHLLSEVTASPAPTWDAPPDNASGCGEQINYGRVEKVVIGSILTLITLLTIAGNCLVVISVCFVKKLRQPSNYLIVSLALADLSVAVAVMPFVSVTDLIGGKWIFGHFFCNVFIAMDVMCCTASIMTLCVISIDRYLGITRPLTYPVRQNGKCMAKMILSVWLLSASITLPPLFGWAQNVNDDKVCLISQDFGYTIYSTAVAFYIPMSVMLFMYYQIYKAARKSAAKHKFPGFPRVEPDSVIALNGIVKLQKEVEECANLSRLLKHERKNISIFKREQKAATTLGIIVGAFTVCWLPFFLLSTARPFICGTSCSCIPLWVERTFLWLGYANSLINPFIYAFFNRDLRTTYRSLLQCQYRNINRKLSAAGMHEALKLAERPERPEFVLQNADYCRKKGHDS
human 5-HT2Cedited receptor, sequence (P28335 33-458 limits assumed): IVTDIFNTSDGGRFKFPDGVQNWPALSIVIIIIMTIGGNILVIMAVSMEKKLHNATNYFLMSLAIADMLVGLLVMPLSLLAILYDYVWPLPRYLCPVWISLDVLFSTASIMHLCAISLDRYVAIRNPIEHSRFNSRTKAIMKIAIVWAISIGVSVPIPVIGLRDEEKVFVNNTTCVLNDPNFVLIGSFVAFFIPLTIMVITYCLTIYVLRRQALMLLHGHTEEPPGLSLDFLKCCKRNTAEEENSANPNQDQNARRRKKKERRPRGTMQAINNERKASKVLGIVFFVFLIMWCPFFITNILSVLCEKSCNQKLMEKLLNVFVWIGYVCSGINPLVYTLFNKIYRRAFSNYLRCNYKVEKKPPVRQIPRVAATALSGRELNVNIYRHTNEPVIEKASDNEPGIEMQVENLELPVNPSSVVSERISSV

As to `O=C1Nc2cccc3c2C1(CCCCN1CC=C(c2ccccc2)CC1)CCC3` (stereo not drawn) [DR4004, reference compound], the “induction of ERK phosphorylation” value in experiment [1] is “none of them were able to induce ERK activation”.

As for `O=c1[nH]c2ccccc2n1CCCCCN1CCCN(c2ccc(F)cc2)CC1` [JLB060], the IC50 (in general, the concentration that gives 50% inhibition) amounted to 902 nM in experiment [2] (read-out: RLB 5-HT2Cedited IC50), 850 nM in experiment [3] (read-out: RLB 5-HT1A IC50), 137 nM in experiment [4] (read-out: RLB 5-HT2A IC50) and 0.98 nM in experiment [5]. The inhibition constant (Ki) (usually the equilibrium dissociation constant of an inhibitor or competing ligand from its target) is 148 nM in experiment [2] (read-out: RLB 5-HT2Cedited Ki), 425 nM in experiment [3] (read-out: RLB 5-HT1A Ki), 23 nM in experiment [4] (read-out: RLB 5-HT2A Ki) and 0.69 nM in experiment [5]. In experiment [1], the “induction of ERK phosphorylation” value is recorded as “robustly induce ERK phosphorylation”.

Consider `CC(C)C[C@H](CN)CC(=O)O` [Pregabalin, reference compound], for which the “tolerance after repetitive administration (AUC)” value in experiment [6] (9 consecutive days) is recorded as “significant decrease of the analgesic effect”. The “mechanical response threshold vs vehicle” value in experiment [6] (first (D+10) and last (D+18) administration, 1 h and 2 h) is “significant increase of the mechanical response threshold”.

On to `CN1CC[C@]23c4c5ccc(O)c4O[C@H]2[C@@H](O)C=C[C@H]3[C@H]1C5` [morphine, reference compound], for which the “inhibition of the writhing assay response” value in experiment [7] is on record as “full inhibition”. The “inhibitory effect on paw licking, early phase” value in experiment [8] (0 to 5 minutes, not significant) was −57%. In experiment [8] (17 to 27 minutes), the “inhibition of licking, late phase” value is −64%.
